Source: the supplement of paper PMC10307832

How the values were obtained:
Assay in all cases: relative viability (nuclei count vs DMSO), 5 days (fraction); higher = more cells survive
[1] = compound: CO[C@H]1C[C@@H]2CC[C@@H](C)[C@@](O)(O2)C(=O)C(=O)N2CCCC[C@H]2C(=O)O[C@H]([C@H](C)C[C@@H]2CC[C@@H](OCCO)[C@H](OC)C2)CC(=O)[C@H](C)/C=C(\C)[C@@H](O)[C@@H](OC)C(=O)[C@H](C)C[C@H](C)/C=C/C=C/C=C/1C [Everolimus] + C[C@]1(O)C[C@@H](c2nc(-c3ccc4ccc(-c5ccccc5)nc4c3)c3c(N)nccn32)C1 [Linsitinib] (partner 1 µM)
How it was run: (§1)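 Lung cancer cell lines in 1536-well plates got either a single drug or a fixed anchor-drug dose together with five library-drug doses (not always all listed) in √10 steps, by pin tool, on the day after seeding. Nuclei were counted after 5 days, and relative viability is the treated-to-vehicle ratio of nuclei counts. Values are medians of duplicate plates.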

[2] = compound: CO[C@H]1C[C@@H]2CC[C@@H](C)[C@@](O)(O2)C(=O)C(=O)N2CCCC[C@H]2C(=O)O[C@H]([C@H](C)C[C@@H]2CC[C@@H](OCCO)[C@H](OC)C2)CC(=O)[C@H](C)/C=C(\C)[C@@H](O)[C@@H](OC)C(=O)[C@H](C)C[C@H](C)/C=C/C=C/C=C/1C [Everolimus] + CCNC(=O)c1noc(-c2cc(C(C)C)c(O)cc2O)c1-c1ccc(CN2CCOCC2)cc1 [Luminespib] (partner 0.01 µM)
How it was run: as §1

[3] = compound: CO[C@H]1C[C@@H]2CC[C@@H](C)[C@@](O)(O2)C(=O)C(=O)N2CCCC[C@H]2C(=O)O[C@H]([C@H](C)C[C@@H]2CC[C@@H](OCCO)[C@H](OC)C2)CC(=O)[C@H](C)/C=C(\C)[C@@H](O)[C@@H](OC)C(=O)[C@H](C)C[C@H](C)/C=C/C=C/C=C/1C [Everolimus] + COc1cccc2cc(-c3nc([C@H]4CC[C@H](C(=O)O)CC4)n4ncnc(N)c34)[nH]c12 [OSI-027] (partner 0.5 µM)
How it was run: as §1

[4] = compound: CO[C@H]1C[C@@H]2CC[C@@H](C)[C@@](O)(O2)C(=O)C(=O)N2CCCC[C@H]2C(=O)O[C@H]([C@H](C)C[C@@H]2CC[C@@H](OCCO)[C@H](OC)C2)CC(=O)[C@H](C)/C=C(\C)[C@@H](O)[C@@H](OC)C(=O)[C@H](C)C[C@H](C)/C=C/C=C/C=C/1C [Everolimus] + CS(=O)(=O)CCNCc1ccc(-c2ccc3ncnc(Nc4ccc(OCc5cccc(F)c5)c(Cl)c4)c3c2)o1 [Lapatinib] (partner 2 µM)
How it was run: as §1

Cell Line	relative viability ([1]; first compound 0.01 µM)	relative viability ([1]; first compound 0.03162 µM)	relative viability ([1]; first compound 0.1 µM)	relative viability ([1]; first compound 0.3162 µM)	relative viability ([1]; first compound 1 µM)	relative viability ([2]; first compound 0.01 µM)	relative viability ([2]; first compound 0.03162 µM)	relative viability ([2]; first compound 0.1 µM)	relative viability ([2]; first compound 0.3162 µM)	relative viability ([2]; first compound 1 µM)	relative viability ([3]; first compound 0.01 µM)	relative viability ([3]; first compound 0.03162 µM)	relative viability ([3]; first compound 0.1 µM)	relative viability ([3]; first compound 0.3162 µM)	relative viability ([3]; first compound 1 µM)	relative viability ([4]; first compound 0.01 µM)	relative viability ([4]; first compound 0.03162 µM)	relative viability ([4]; first compound 0.1 µM)	relative viability ([4]; first compound 0.3162 µM)	relative viability ([4]; first compound 1 µM)
H3255	0.804	0.695	0.559	0.602	0.504	0.594	0.584	0.479	0.504	0.498	0.531	0.426	0.381	0.402	0.339	0.249	0.238	0.266	0.212	0.225
EPLC-272H	1.15	0.786	0.64	0.619	0.657	0.162	0.176	0.188	0.203	0.263	0.206	0.204	0.203	0.24	0.253	0.615	0.73	0.543	0.605	0.587
PC-3 [JPC-3]	0.869	0.914	0.785	0.834	0.866	0.466	0.517	0.493	0.372	0.474	0.7	0.602	0.588	0.512	0.631	0.372	0.382	0.346	0.359	0.412
NCI-H1793	0.299	0.188	0.333	0.311	0.246	0.151	0.149	0.139	0.152	0.113	0.236	0.189	0.185	0.21	0.185	0.316	0.337	0.378	0.352	0.278
EKVX	0.863	0.728	0.63	0.402	0.568	0.623	0.475	0.336	0.447	0.425	0.518	0.427	0.289	0.358	0.43	0.158	0.161	0.159	0.171	0.161
ChaGo-K-1	–	–	–	–	–	0.455	0.396	0.54	0.432	0.399	0.467	0.445	0.443	0.504	0.495	–	–	–	–	–
NCI-H23	0.288	0.3	0.244	0.251	0.271	0.211	0.2	0.21	0.232	0.218	0.382	0.35	0.362	0.41	0.378	0.736	0.685	0.491	0.695	0.693
EMC-BAC-2	0.587	0.542	0.532	0.517	0.501	0.789	0.714	0.689	0.735	0.613	0.288	0.275	0.274	0.307	0.283	0.675	0.563	0.49	0.571	0.517
LOU-NH91	0.794	0.644	0.718	0.585	0.66	0.284	0.307	0.317	0.321	0.314	0.529	0.57	0.531	0.524	0.516	0.553	0.56	0.58	0.615	0.546
LU99A	0.342	0.345	0.295	0.283	0.334	0.226	0.204	0.185	0.191	0.253	0.234	0.243	0.245	0.248	0.241	0.621	0.548	0.573	0.52	0.55
NCI-H1395	1	0.864	0.766	0.731	0.787	0.581	0.522	0.532	0.449	0.537	0.596	0.555	0.544	0.482	0.54	0.886	0.755	0.585	0.614	0.869
NCI-H460	0.42	0.45	0.365	0.301	0.381	0.0198	0.0198	0.0232	0.0224	0.0194	0.389	0.503	0.304	0.314	0.333	0.912	0.919	0.805	0.866	0.84
201T	0.805	0.876	0.78	0.78	0.823	0.85	0.816	0.838	0.823	0.874	0.574	0.549	0.519	0.499	0.509	0.911	1	0.852	0.882	0.938
NCI-H1944	0.84	0.824	0.684	0.754	0.715	0.436	0.447	0.374	0.429	0.345	0.365	0.305	0.294	0.358	0.326	0.633	0.669	0.617	0.604	0.541
NCI-H2405	0.515	0.49	0.463	0.536	0.536	0.657	0.548	0.523	0.52	0.484	0.505	0.474	0.532	0.459	0.488	0.84	0.903	0.712	0.872	0.796
NCI-H1703	0.293	0.281	0.447	0.488	0.463	–	–	–	–	–	–	–	–	–	–	0.569	0.481	0.548	0.489	0.847
NCI-H1755	0.883	0.717	0.665	0.727	0.658	0.372	0.312	0.347	0.347	0.244	0.655	0.63	0.573	0.647	0.593	0.866	0.964	0.769	0.876	0.77

Cell Line	relative viability ([1]; first compound 0.01 µM)	relative viability ([1]; first compound 0.03162 µM)	relative viability ([1]; first compound 0.1 µM)	relative viability ([1]; first compound 0.3162 µM)	relative viability ([1]; first compound 1 µM)	relative viability ([2]; first compound 0.01 µM)	relative viability ([2]; first compound 0.03162 µM)	relative viability ([2]; first compound 0.1 µM)	relative viability ([2]; first compound 0.3162 µM)	relative viability ([2]; first compound 1 µM)	relative viability ([3]; first compound 0.01 µM)	relative viability ([3]; first compound 0.03162 µM)	relative viability ([3]; first compound 0.1 µM)	relative viability ([3]; first compound 0.3162 µM)	relative viability ([3]; first compound 1 µM)	relative viability ([4]; first compound 0.01 µM)	relative viability ([4]; first compound 0.03162 µM)	relative viability ([4]; first compound 0.1 µM)	relative viability ([4]; first compound 0.3162 µM)	relative viability ([4]; first compound 1 µM)
NCI-H2087	0.821	1.09	0.765	0.788	0.674	0.168	0.205	0.146	0.143	0.15	0.356	0.327	0.388	0.49	0.233	1.2	1.05	0.824	0.848	1.05
EBC-1	0.263	0.218	0.306	0.205	0.298	–	–	–	–	–	–	–	–	–	–	0.23	0.218	0.208	0.184	0.25
NCI-H1299	0.855	1	0.544	0.848	0.819	–	–	–	–	–	–	–	–	–	–	0.975	1.06	0.974	0.994	1
Calu-6	0.647	0.707	0.663	0.762	0.778	–	–	–	–	–	–	–	–	–	–	0.987	1.02	0.907	0.927	0.994
NCI-H2170	–	–	–	–	–	0.291	0.175	0.229	0.316	0.198	0.464	0.338	0.481	0.422	0.421	0.214	0.242	0.228	0.222	0.247
SW 900	–	–	–	–	–	0.173	0.174	0.165	0.154	0.169	0.317	0.273	0.25	0.35	0.244	–	–	–	–	–
LCLC-103H	1.04	0.905	0.864	0.831	0.747	0.839	0.819	0.689	0.741	0.733	0.347	0.385	0.402	0.367	0.366	–	–	–	–	–
NCI-H441	0.504	0.302	0.289	0.402	0.401	0.272	0.267	0.223	0.271	0.234	0.557	0.479	0.474	0.585	0.358	–	–	–	–	–
A549	0.484	0.308	0.231	0.241	0.223	–	–	–	–	–	–	–	–	–	–	0.682	0.5	0.444	0.485	0.444
NCI-H1650	–	–	–	–	–	0.167	0.207	0.184	0.208	0.19	0.489	0.444	0.468	0.484	0.574	0.615	0.707	0.645	0.742	0.489
NCI-H522	–	–	–	–	–	0.841	0.631	0.767	0.738	0.811	0.658	0.501	0.617	0.621	0.591	–	–	–	–	–
IA-LM	0.296	0.306	0.243	0.267	0.282	–	–	–	–	–	–	–	–	–	–	0.718	0.395	0.377	0.272	0.432
NCI-H1648	–	–	–	–	–	–	–	–	–	–	0.247	0.252	0.268	0.281	0.257	–	–	–	–	–
HCC-366	0.338	0.372	0.274	0.291	0.343	–	–	–	–	–	0.755	0.614	0.49	0.727	0.5	0.89	1.11	0.994	0.992	0.589
NCI-H2342	–	–	–	–	–	0.668	0.496	0.426	0.46	0.553	0.501	0.456	0.431	0.515	0.547	–	–	–	–	–
HCC-78	0.482	0.319	0.272	0.28	0.293	–	–	–	–	–	0.348	0.332	0.572	0.311	0.347	0.633	1.28	0.521	0.36	0.534
